Values after ≈ are worked out from the molar mass of the structure shown. Marks after values point to notes of the source that are not given here.
How the values were obtained:
Type in all cases: cell-based, Staphylococcus aureus
[1] = system: MW2 ex Δpbp3/4; assay: MIC by microdilution (CLSI)
Excerpt: (§1) Experiments were first performed using mutants of various PBPs. In-frame deletion mutants of the genes encoding PBP3 (MW1504) and PBP4 (MW0604), pbp3 and pbp4 respectively, were generated in the CA-MRSA strain MW2 and in HA-MRSA strain COL using the temperature-sensitive allelic replacement vector pMAD (Arnaud, M. et al. 2004. Appl. Environ. Microbiol. 70:6887-6891). PBP4 was also deleted in the HA-MRSA strains Mu50 and N315 and in the CA-MRSA strain USA300. […] Minimum inhibitory concentrations (MICs) were determined according to the Clinical and Laboratory Standards Institute and are a standard method for defining antibiotic efficacy against different organisms. Bacteria, grown to an OD650=1, were added to cation-supplemented Mueller Hinton broth (CSMHB) to achieve a final concentration of 5×10^5 CFU/ml.
(§2) Minimum inhibitory concentrations and minimum bactericidal concentrations (MIC and MBC, respectively) were determined for each isolate in triplicate by microdilution techniques with an inoculum of 5×10^5 CFU/ml according to the Clinical and Laboratory Standards Institute guidelines. Aliquots (5 μl) from clear wells were plated onto TSA drug-free plates for the determination of MBCs, followed by incubation at 37° C. for 24 and 48 hours. For the mutant strains, each one of the three clones was tested. MIC data were reported as median values from at least three independent experiments for each antibiotic. Also, strains containing pEPSA5-based plasmids were tested with and without xylose induction, but chloramphenicol was not added to avoid interference with beta-lactam resistance evaluation. […] The correct inocula were confirmed by plating serial dilutions on agar.

[2] = system: Mu50 wild-type; assay: MIC by microdilution (CLSI)
Excerpt: as §1, §2

[3] = system: HA-MRSA Strains (30 clinical isolates); assay: MIC and synergy assay, clinical isolates
Excerpt: (§3) Analysis of the Type IV SCCmec element, virtually identical between MW2 and USA300, allowed for identification of four genes conserved in the CA-MRSA background, but not in other known MRSA genomes. These four genes therefore served as biomarkers that could be used to distinguish CA-MRSA strains from HA-MRSA strains. PCR of chromosomal DNAs with oligonucleotides specific for mecA, pvl (Lina, G. et al. 1999. Clin. Infect. Dis. 29:1128-1132) and the four specific genes for CA-MRSAs (MW0042/USA300_0041; MW0043/USA300_0042; MW0046/USA300_0045; and MW0047/USA300_0046) identified 30 isolates positive for these genes. […] The code was subsequently broken, confirming that all 30 isolates, designated as CA-MRSA, were from patients with primary skin infections and annotated by the donating hospital as CA-MRSA while the other were blood isolates designated as HA-MRSA. […] The synergistic inhibitory activity of the combined treatment also was further tested on 30 MRSA isolates from complicated skin and soft tissue infections, with CA-MRSA being the most common etiologic agent.
(§4) Two independent batches of clinical isolates were obtained from the Dartmouth Hitchcock Medical Center, Lebanon, N.H. The first group included 200 blood MRSA isolates sub-cultured on 5% Columbia sheep blood agar (Remel). The second group involved 30 MRSA isolates from complicated skin and soft tissue infections (CSSTI) similarly sub-cultured. All strains were grown overnight in CSMHB broth and streaked on selective mannitol salt agar plates for confirmation. DNA extraction was performed on 500 μl of cultures. PCR was performed on all DNAs with oligonucleotides specific for mecA, pvl and the four genes found to be specific for the SCCmec type IV in CA-MRSA: MW0042, MW0043, MW0046, and MW0047. DNA amplification of mecA was used as a control to confirm that all strains were MRSA. DNAs from S. epidermidis, E. coli and S. pneumoniae were used as negative controls to confirm the specificity of the oligonucleotides. After amplification for 30 cycles (5 min of denaturation at 95° C., 30 s of annealing at 54° C. and 1 min extension at 72° C.), PCR products were resolved by electrophoresis through 1.5% agarose gels stained with ethidium bromide. Given the number of clinical isolates tested, only a small random group of PCR products were subjected to DNA sequencing to confirm specificity. S. aureus strain COL, Mu50, N315 and MRSA252 all tested negative for all MW0042, MW0043 and MW0047 and pvl while USA300 and MW2 were positive controls for this PCR reaction. The primer sequences for mecA, MW0042, MW0043 and MW0047 were as follows: mecA-UP 5′-GGTACTGCTATCCACCCTCAAA-3′ (SEQ ID NO:19), mecA-LOW 5′-TTACGACTTGTTGCATACCATCA-3′ (SEQ ID NO:20), MW0042-UP 5′-ATTGGCAGAAATAAACAAAACG-3′ (SEQ ID NO:21), MW0042-LOW 5′-TCGTTTAATTTTTTCCCAAACTC-3′ (SEQ ID NO:22), MW0043-UP 5′-GTTTCAGTTGGTGTTGAAGATCC-3′ (SEQ ID NO:23), MW0043-LOW 5′-CCTATAATTTTCGATAGATTCGTG-3′ (SEQ ID NO:24), MW0047-UP 5′-AGGCATATAAAGAAGCAGGAAAG-3′ (SEQ ID NO:25), MW0047-LOW 5′-CACACTGTTTTCCTACGATATTTG-3′ (SEQ ID NO:26).
as §2, with “agar. […]” for “agar.”

[4] = system: CA-MRSA from CSSTI (30 isolates); assay: MIC and synergy assay, clinical isolates
Excerpt: as §3, §4
as §2, with “agar. […]” for “agar.”

[5] = system: MW2 (USA400) CA-MRSA; assay: Minimum bactericidal concentration (MBC); details: for combination: MBC of oxacillin with ¼ MIC cefoxitin
Method: as §2

[6] = system: USA300 CA-MRSA; assay: Minimum bactericidal concentration (MBC); details: for combination: MBC of oxacillin with ¼ MIC cefoxitin
Method: as §2

[7] = Staphylococcus aureus, read-out: MICs
[8] = Staphylococcus aureus, MRSA, 48 h, read-out: MICs 48 hr

Compound	MIC [1, 7]	MIC [2, 7]	MIC [3, 8]	MIC [4, 8]	MBC 48 hr [5]	MBC 48 hr [6]	MICs ([1]; Table 1, MW2 ex Δpbp3/4)	MICs 48 hr ([2]; Mu50, 48 hr, for combination: MIC of oxacillin with ¼ MIC cefoxitin)	MICs ([2]; Table 1, Mu50 wild-type)	MICs 48 hr ([3]; 30 HA-MRSA clinical isolates, median values, 48 hr)	MICs 48 hr ([4]; 30 CSSTI isolates, median values, 48 hr)
CO[C@@]1(NC(=O)Cc2cccs2)C(=O)N2C(C(=O)O)=C(COC(N)=O)CS[C@@H]21 [CX, cefoxitin]	32 µg/mL (≈ 74.9 µM)	256 µg/mL (≈ 599 µM)	128 µg/mL	64 µg/mL	> 256 µg/mL	> 256 µg/mL					
Cc1onc(-c2ccccc2)c1C(=O)N[C@@H]1C(=O)N2[C@@H]1SC(C)(C)[C@@H]2C(=O)O [OX, oxacillin]					256 µg/mL	256 µg/mL	1 µg/mL	256 µg/mL	256 µg/mL	256^b μg/ml	64^b μg/ml

From patent publication US9427468B2, “Compositions and methods for diagnosing and treating community-acquired methicillin-resistant Staphylococcus aureus” (priority 2007, dated 2016)
